Experimental data as given in US20150065436A1, “INHIBITING INTERACTION BETWEEN HIF-1ALPHA AND p300/CBP WITH HYDROGEN BOND SURROGATE-BASED HELICES” (UNIVERSITY OF SOUTHERN CALIFORNIA, priority 2013, published 2015).

How the values were obtained:
[1] = biological target: T1, p300-CH1/Flu-HIF C-TAD complex (Homo sapiens, UniProt Q09472); experiment: Fluorescence polarization competitive inhibition assay; assay type: binding
T1 construct: human p300 CH1 domain (amino acid residues 323-423); GST (cleaved yes); made in house; host or cells: E. coli BL21 (DE3) for p300-CH1

[2] = tested on: VEGFA; experiment: Real-time qRT-PCR of VEGFA expression in hypoxic HeLa cells; assay type: cell-based, human; conditions: for reduction of VEGF expression levels: DFO hypoxia
[3] = tested on: SLC2A1 (GLUT1); experiment: Real-time qRT-PCR of SLC2A1 (GLUT1) expression in hypoxic HeLa cells; assay type: cell-based, human; conditions: hypoxia, dose-dependent (10 and 50 μM tested)
[4] = tested on: hypoxia-inducible promoter activity in MDA-MB-231-HRE-Luc cells; experiment: Luciferase-based HRE promoter activity assay; conditions: 50 μM, hypoxia by GasPak EZ pouch
Experimental: MDA-MB-231-HRE-Luc cells were grown in high glucose DMEM supplemented with 10% fetal bovine serum and 0.4 g/L geneticin (RPI). Hypoxia was mimicked with desferrioxamine mesylate (DFO, Sigma) at a concentration of 300 μM or by GasPak EZ pouch (BD Biosciences). Cell growth and morphology were monitored by phase-contrast microscopy.
MDA-MB-231-HRE-Luc cells were plated in 24-well plates (BD Falcon) at a seeding density of 35,000 cells/mL. Cells were allowed to adhere and form a monolayer before adding the compounds (˜70% confluence). […] All samples contained a final concentration of 0.1% DMSO; vehicle samples were treated with cell culture media containing 0.1% DMSO. Cells were incubated for 6 hours at 37° C. and 5% CO2 and then hypoxia was induced by placing the cells into GasPak EZ pouch for another 18 hours. The lysates were isolated by using cell culture lysis reagent (Promega). Prior to collecting cell lysate, halt protease inhibitor cocktail (Thermo Scientific) was added to the cell culture lysis reagent in order to ensure the stability of proteins. Cell lysates were collected into low-adhesion pre-chilled Eppendorf tubes (USA Scientific) and centrifuged at 13,000 rpm for 5 minutes at 4° C. Supernatant was collected into another set of pre-chilled Eppendorf tubes and the pellet was discarded. Luciferase assay reagent (100 μL, Promega) was added to 20 μL of cell lysate and luminescence intensity was measured by Turner TD-20e luminometer. The results were normalized to total protein concentration determined by BCA assay. Briefly, 10 μL of cell lysate was added to 200 μL of BCA reagent. Absorbance was measured at 562 nm using a BioTek Synergy 2 microplate reader and normalized to BSA solutions at a concentration range of 125 μg/mL to 2000 μg/mL as standards.

[5] = biological target: T2, 15N-labelled p300-CH1 (Homo sapiens, UniProt Q09472); experiment: 1H-15N HSQC NMR titration; assay type: binding; conditions: 69 μM CH1, CH1:HBS 1 ratios 1:1, 1:3, 1:5, 1:10
T2 construct: human p300 CH1 domain (amino acid residues 323-423); GST (cleaved yes); made in house; host or cells: E. coli BL21 (DE3)
Experimental: Protein samples were prepared as described above. Uniformly ^15N-labelled p300-CH1 was concentrated to 69 μM in NMR buffer (10 mM Tris pH 8, 50 mM NaCl, 2 mM DTT, and 207 μM ZnSO4) using a 3 kDa MWCO Amicon Ultra centrifugal filter (Millipore) and supplemented with 5% D2O. For HSQC titration experiments, data was collected on a 600 MHz Bruker four-channel NMR system at 25° C. and analyzed with the TopSpin software (Bruker). For Zn^2+ experiments, data were collected on Agilent 600 MHz at 25° C. and analyzed using Sparky3 (Univ. of California).
For the HSQC titration experiments, five and ten molar equivalents of HBS 1 in DMSO were added to ^15N-labelled p300-CH1, and the data were collected as described above. Mean chemical shift difference (ΔδNH) observed for ^1H and ^15N nuclei of various resonances were calculated as described in Williamson, “Using Chemical Shift Perturbation to Characterise Ligand Binding,” Prog. Nucl. Mag. Resonance Spectr. […]
To further characterize the interaction of HBS 1 with the CH1 domain, ^1H-^15N HSQC NMR titration experiments were performed with uniformly ^15N-labeled CH1. […] This cleft includes Trp403 and chemical shift perturbations observed for this residue support the results of the fluorescence titration experiments. […]

[6] = Plasma stability and biodistribution study; assay type: in vivo; conditions: 1 mg/kg intravenously, female BALB/c mice
Experimental: Plasma stability and biodistribution studies were performed in 10-week-old female BALB/c mice (Charles River) with 3 mice per time point. Briefly, HBS 1 or peptide 3 was dissolved in 70 μL of sterile PBS and administered intravenously at a dose of 1 mg/kg. Then, 1 mL of blood was collected by cardiac puncture at euthanasia at the following time points: 30 min., 1 h., 2 h., 4 h., 6 h., 8 h., 12 h., 16 h., and 24 h. after drug administration. The experiments were performed under an approved IACUC protocol at the University of Southern California.
Samples were prepared by mixing 30 μL of plasma with 20 μL of 50% MeOH and 50% aqueous 1% formic acid. The mixture was vortexed and mixed with an additional 120 μL of 0.5% formic acid in MeOH/ACN (4:6) and 20 μL of 2.0 μg/mL isoproterenol in MeOH/1% aqueous formic acid (1:1) as an internal standard. The mixture was vortexed again for 2 minutes and centrifuged at 13,000 rpm for 4 minutes. Next, 20 μL of the supernatant was transferred to a new tube and mixed with 180 μL of 50% MeOH/ACN (4:6) and 50% aqueous 1% formic acid. Standard curves were prepared by mixing the plasma from three untreated mice with 20 μL of 50% MeOH and 50% aqueous 1% formic acid prepared with HBS 1 or peptide 3 at a concentration range of 0.05-2 μg/mL.
Samples were analyzed by LC/MS/MS using an Agilent 6210 time-of-flight LC/MS system. HPLC separation was achieved using a Prevail 3u C18 100×2.1 mm column (Grace Davison, Deerfield, Ill., USA). The column temperature was maintained at 20° C. The mobile phase consisted of A (5% acetonitrile and 95% of 0.05% aqueous formic acid) and B (5% of 05% aqueous formic acid and 95% acetonitrile). The following gradient program was used: 0% B (0 min, 0.125 ml/min), 100% B (17 min, 0.125 ml/min). The total run time was 35 minutes. […]
A mouse xenograft tumor model was used to assess the in vivo efficacy of HBS 1. The relative plasma stabilities of HBS 1 and linear peptide 3 in mice were first measured. […]

T1 sequence (Q09472 323-423, one chain of several): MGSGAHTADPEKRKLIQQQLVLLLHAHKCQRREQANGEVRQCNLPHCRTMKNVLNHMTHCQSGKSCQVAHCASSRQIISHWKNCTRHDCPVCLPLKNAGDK
T2 sequence (Q09472 323-423): as the sequence (Q09472 323-423, one chain of several) above

SMILES | inhibition of the complex on titration ([1]; preformed p300-CH1/Flu-HIF C-TAD complex) | reduction of VEGF expression levels ([2]; 50 μM) | inhibition of SLC2A1 expression [3] | reduction of luciferase expression [4] | Ki [1] [µM] | shift in CH1 resonances on addition of compound [5] | reduction of VEGF expression levels ([2]; 10 μM) [%] | inhibition of VEGF expression under two hypoxia mimetic conditions ([2]; DFO and prolonged incubation in an anaerobic pouch) | pattern of plasma decay [6] | plasma concentrations over the same time intervals ([6]; 30 min to 24 h)
CC(C)C[C@@H]1NC(=O)[C@H](CCC(=O)O)NC(=O)CCC=CCN([C@@H](C)C(=O)N[C@@H](CCCNC(=N)N)C(=O)N[C@@H](C)C(=O)N[C@@H](C)C(=O)N[C@@H](CC(=O)O)C(=O)N[C@@H](CCC(N)=O)C(N)=O)C1=O [HBS 2, XELA*RAADQ-NH2] | did not lead to reproducible inhibition | 10% | no activity | less effective | – | – | – | – | – | –
CC(C)C[C@H](NC(=O)[C@H](C)NC(=O)[C@H](CCCNC(=N)N)NC(=O)[C@H](C)N1CC=CCCC(=O)N[C@@H](CCC(=O)O)C(=O)N[C@@H](CC(C)C)C1=O)C(=O)N[C@@H](CC(=O)O)C(=O)N[C@@H](CCC(N)=O)C(N)=O [HBS 1, XELA*RALDQ-NH2] | – | greater than 60% | 50-60% | 25% | 3.5 ± 1.2 | concentration-dependent shift in the resonances of several CH1 residues | 50 | dose-dependent inhibition | bi-exponential pattern of decay | much higher concentrations as compared to peptide 3
